The source of these data is ChEMBL document CHEMBL1201862, “PubChem BioAssay data set” (2004).

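The compound was tested at five concentrations on cells cultured in 96-well plates, with a 48-hour exposure period. The concentration for 50% growth inhibition is given as GI50.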 Calls of active or inactive are those of the source. No stated cut-off is given here; in the data, active = GI50 up to about 1.1 µM and inactive = higher. A value given as a limit tells only on which side of the number the result lay.

Holding throughout (test): growth of human tumour cells (NCI), 48 h
Experiment [1] has as its system NCI/ADR-RES.
Experiment [2] relates to EKVX.
The test system of experiment [3] is BT-549.
For experiment [4], the system named is 786-0.
In experiment [5] the test system is PC-3.
Experiment [6] deals with SK-MEL-2.
Experiment [7] has as its system A549.
Experiment [8] relates to NCI-H23.
The test system of experiment [9] is HOP-62.
Experiment [10] has as its system K562.
For experiment [11], the system named is OVCAR-3.
For experiment [12], the system named is UACC-257.
The test system of experiment [13] is MDA-N.
Experiment [14] has as its system COLO 205.
In experiment [15] the test system is SK-OV-3.
In experiment [16] the test system is SF-539.
In experiment [17] the test system is OVCAR-8.
In experiment [18] the test system is NCI-H460.
The test system of experiment [19] is SNB-75.
Experiment [20] relates to SK-MEL-28.

As for `O=C(O)c1nc2cc(C(F)(F)F)ccc2nc1Nc1ccc(Cl)c(Cl)c1`, the GI50 in experiment [1] is 10.5 µM (inactive); in experiment [2] it was 17.9 µM (inactive); in experiment [3] it was 11.1 µM (inactive); in experiment [4], 15.9 µM (inactive); in experiment [5], 4.3 µM (inactive); in [6], 2.96 µM (inactive). Moreover, the GI50 in [7] is 8.79 µM (inactive); in experiment [8], 14.3 µM (inactive); in [9] it was 14.5 µM (inactive); in experiment [10], 14.6 µM (inactive); in experiment [11], 13.5 µM (inactive); in experiment [12], 20.7 µM (inactive). In addition, the GI50 in [13] was 14 µM (inactive); in experiment [14], 16.6 µM (inactive); in experiment [15] it was 16.7 µM (inactive); in [16] it was 11.4 µM (inactive); in experiment [17], 12.6 µM (inactive); in experiment [18], 13.5 µM (inactive). For the same compound, in experiment [19], the GI50 is 20.5 µM (inactive).
As to `COc1cc2c(c(O)c1C)C(=O)C(Cl)=CC2=O`, the GI50 in experiment [1] is 22.6 µM (inactive); in experiment [2], 16 µM (inactive); in experiment [3], 8.3 µM (inactive); in experiment [4], 11.6 µM (inactive); in experiment [5], 15.2 µM (inactive); in experiment [6], 15.6 µM (inactive). Further, the GI50 is 22.1 µM (inactive) in experiment [7]; 10.2 µM (inactive) in experiment [8]; 43.2 µM (inactive) in experiment [9]; 2.26 µM (inactive) in experiment [10]; 9.91 µM (inactive) in [11]; 9.95 µM (inactive) in experiment [12]. For the same compound, the GI50 in experiment [13] is 4.07 µM (inactive); in [14] it was 2.16 µM (inactive); in experiment [15], > 53.1 µM (inactive); in experiment [16], 18.1 µM (inactive); in experiment [20] it was 18.8 µM (inactive); in experiment [17], 18.8 µM (inactive). The GI50 in experiment [18] was 24.9 µM (inactive); in experiment [19], 16.4 µM (inactive).
With `OCc1ccn2c1[C@@H](O)CC2`, the GI50 in experiment [1], in experiment [2], in [3], in [4], in experiment [5] and in [6] was > 100 µM (inactive) each time. In addition, the GI50 in experiment [7], in [8], in experiment [9], in experiment [10], in experiment [11] and in experiment [12] was > 100 µM (inactive) in each case. Besides, the GI50 in [13], in experiment [14], in experiment [15], in experiment [16], in [20] and in experiment [17] was > 100 µM (inactive) in each case. In addition, the GI50 in experiment [18] and in [19] was > 100 µM (inactive) each time.
With `CN(C)CC1CCCc2ccccc2C1=O` (stereo unspecified), the GI50 in experiment [1] was 3.32 µM (inactive); in experiment [2] it was 1.85 µM (inactive); in [3], 5.06 µM (inactive); in experiment [4], 1.47 µM (inactive); in [5], 1.57 µM (inactive); in experiment [6], 2.02 µM (inactive). For the same compound, the GI50 in experiment [7] is 20.3 µM (inactive); in [8], 6.41 µM (inactive); in [9], 16.6 µM (inactive); in experiment [10] it was 0.323 µM (active); in [11] it was 1.82 µM (inactive); in experiment [12], 6.1 µM (inactive). The GI50 in [13] was 1.58 µM (inactive); in experiment [14], 5.14 µM (inactive); in experiment [15], 18.3 µM (inactive); in experiment [16], 4.79 µM (inactive); in [20], 6.03 µM (inactive); in experiment [17], 2.13 µM (inactive). The figures for the GI50 in experiment [18] and in [19] were 19.6 µM (inactive) and 41.8 µM (inactive), respectively.
In the case of `C[S+]([O-])c1cc(=O)c2ccccc2s1` (stereo unspecified), the GI50 in experiment [1] was 16.7 µM (inactive); in [2], 5.71 µM (inactive); in experiment [3], 14.5 µM (inactive); in experiment [4], 2.82 µM (inactive); in experiment [5], 15.5 µM (inactive); in [6], 10.8 µM (inactive). In addition, the GI50 was 18.5 µM (inactive) in experiment [7]; 6.19 µM (inactive) in experiment [8]; 27 µM (inactive) in experiment [9]; 1.82 µM (inactive) in experiment [10]; 2.42 µM (inactive) in [11]; 3.4 µM (inactive) in experiment [12]. The GI50 in [13] was 3.05 µM (inactive); in experiment [14] it was 2.32 µM (inactive); in [15], 24.5 µM (inactive); in [16], 9.12 µM (inactive); in experiment [20] it was 4.2 µM (inactive); in experiment [17] it was 3.6 µM (inactive). The GI50 in experiment [18] was 14.9 µM (inactive); in experiment [19], 11.4 µM (inactive).
Turning to `CC[C@]12C=CCN3CC[C@@]4(c5cc(N=O)c(OC)cc5N(C)[C@H]4[C@@](O)(C(=O)OC)[C@@H]1OC(C)=O)[C@@H]32`, the GI50 in experiment [1] is > 100 µM (inactive); in [2], > 100 µM (inactive); in experiment [3], > 100 µM (inactive); in experiment [4], 42.9 µM (inactive); in experiment [5], 40.8 µM (inactive); in experiment [6] it was 18 µM (inactive). Besides, the GI50 was 58.9 µM (inactive) in experiment [7]; > 100 µM (inactive) in experiment [8]; 61 µM (inactive) in experiment [9]; 46.7 µM (inactive) in [10]; 48 µM (inactive) in [11]; > 100 µM (inactive) in experiment [12]. In addition, the GI50 in experiment [13] was 20.1 µM (inactive); in [14], 38.2 µM (inactive); in experiment [15], > 100 µM (inactive); in experiment [16] it was 27.6 µM (inactive); in experiment [20] it was > 100 µM (inactive); in experiment [17] it was > 100 µM (inactive). In addition, the GI50 is 92.3 µM (inactive) in [18] and 57.7 µM (inactive) in [19].
With `FC(F)(F)c1cc(Cl)cnc1N/N=C(/c1ccccc1)c1ccccn1`, the GI50 in experiment [1] was 2.34 µM (inactive); in [2] it was 1.03 µM (active); in experiment [3] it was 6.93 µM (inactive); in [4] it was 2.84 µM (inactive); in experiment [5], 3.54 µM (inactive); in experiment [6], 3.96 µM (inactive). Also, the GI50 is 3.03 µM (inactive) in experiment [7]; 2.55 µM (inactive) in experiment [8]; 3.98 µM (inactive) in [9]; 2.16 µM (inactive) in experiment [10]; 1.82 µM (inactive) in experiment [11]; 3.04 µM (inactive) in experiment [12]. The GI50 in experiment [13] was 17.8 µM (inactive); in experiment [14], 2.03 µM (inactive); in experiment [15] it was 2.49 µM (inactive); in [16], 3.66 µM (inactive); in experiment [20], 6.92 µM (inactive); in experiment [17], 1.8 µM (inactive). In addition, the GI50 in experiment [18] is 3.68 µM (inactive); in [19], 0.298 µM (active).
Turning to `O=C(c1ccccc1)c1ccc(-n2c3ccccc3c3ccc4c(c32)C(=O)C=CC4=O)cc1`, the GI50 in [1] is 18.8 µM (inactive); in [2], 11 µM (inactive); in experiment [3], 20.3 µM (inactive); in experiment [4], 2.06 µM (inactive); in experiment [5] it was 11.7 µM (inactive); in experiment [6], 19.3 µM (inactive). For the same compound, the GI50 was 18.5 µM (inactive) in experiment [7]; 12.8 µM (inactive) in experiment [8]; 16.4 µM (inactive) in experiment [9]; 3.4 µM (inactive) in [10]; 7.59 µM (inactive) in experiment [11]; 12.7 µM (inactive) in experiment [12]. Moreover, the GI50 in experiment [13] is 16.5 µM (inactive); in experiment [14], 9.12 µM (inactive); in experiment [15], 20.9 µM (inactive); in [16] it was 10.4 µM (inactive); in [20], 8.83 µM (inactive); in [17], 7.24 µM (inactive). The GI50 in experiment [18] is 18.5 µM (inactive); in experiment [19] it was 22.7 µM (inactive).
Turning to `CN1C(C(=O)Nc2ccccn2)=C(O)c2ccccc2S1(=O)=O` [PIROXICAM], the GI50 in [1] is > 100 µM (inactive); in experiment [2], > 100 µM (inactive); in experiment [3], 15.3 µM (inactive); in [4], > 100 µM (inactive); in experiment [5] it was > 100 µM (inactive); in experiment [6] it was > 100 µM (inactive). Besides, the GI50 in experiment [7], in experiment [8], in experiment [9], in experiment [11], in experiment [12] and in experiment [13] was > 100 µM (inactive) throughout. Besides, the GI50 in experiment [14], in [15], in experiment [16], in [20], in [17] and in experiment [19] was > 100 µM (inactive) each time.
As to `CCOC(=O)C1=C(C)N(c2ccc(C)cc2)C2(O)C=CC(O)=C3C(=O)c4ccccc4C(=O)C312` (stereo unspecified), the GI50 is 8.24 µM (inactive) in experiment [1]; 39.3 µM (inactive) in experiment [2]; 19.2 µM (inactive) in experiment [3]; 33.9 µM (inactive) in experiment [4]; 25.1 µM (inactive) in experiment [5]; 37.1 µM (inactive) in [6]. The GI50 was 37.8 µM (inactive) in experiment [7]; 38.4 µM (inactive) in experiment [8]; > 100 µM (inactive) in [9]; 34.9 µM (inactive) in experiment [11]; 22.9 µM (inactive) in [12]; 21.1 µM (inactive) in experiment [13]. In addition, the GI50 is 32.4 µM (inactive) in [14]; 35.7 µM (inactive) in [15]; 22.2 µM (inactive) in [16]; 24.9 µM (inactive) in experiment [20]; 21.6 µM (inactive) in experiment [17]; 34.2 µM (inactive) in [18]. Moreover, in [19], the GI50 was 24.1 µM (inactive).
